Measured values published in patent publication US20160102316A1, “STRESS TOLERANT PLANTS” (CONSEJO SUPERIOR DE INVESTIGACIONES CIENTIFICAS(CSIC), priority 2013, published 2016).
“Also recorded” adds a separate entry of the source. Peptide text beside a SMILES is read from it. * marks the point of attachment. Cbz = O=C(OCc1ccccc1)*

Experiments:
[1] = system: 3HA-PYL8; test: MG132 treatment of oe3HA-PYL8 seedlings, anti-HA immunoblot; type: in vivo, Arabidopsis; details: 9-d-old oe3HA-PYL8 seedlings, 50 μM MG132, 2 h, vs mock
Description: To determine whether PYL8 is a substrate of the UPS, we treated Arabidopsis seedlings expressing a 3×HA-tagged PYL8 fusion (oe3HA-PYL8) with proteasome inhibitor MG132. […] Moreover, upon proteasome inhibition several bands of high MW were detected, likely corresponding to ubiquitinated 3HA-PYL8 forms.
(§1) For protein extraction from seedlings, proteins were extracted in buffer containing 50 mM Tris-HCl pH 7.4, 150 mM NaCl, 10mM MgCl2, 1 mM PMSF, 0.1%NP-40 and 1× complete protease inhibitor (Roche). After centrifugation at 16,000 g at 4° C., the supernatants were collected. This step was repeated twice. For protein extraction from seeds, seeds were frozen in liquid N2 and then homogenized in buffer containing 7 M urea, 2 M thiourea, 4% 3-[(3-cholamidopropyl)dimethylammonio]-1-propanesulfonate (CHAPS; w/v), 18 mM Tris-HCl pH 7.5, 0,2% Triton X100, 1× complete protease inhibitor (Roche). After 10 min incubation at 4° C. with rotation. DTT was added to protein extracts (14 mM final concentration), prior to 20 min incubation at 4° C. Extracts were clarified by centrifugation as afore-mentioned. Protein concentration in final supernatants was determined using a Bio-Rad Protein Assay kit. […]

[2] = biological target: T1, 3HA-PYL8 (Arabidopsis thaliana, UniProt Q9FGM1); test: In vivo protein degradation assay (cycloheximide time course, immunoblot); details: 8-d-old seedlings treated with cycloheximide
T1 construct: expressed in transfected cells; host or cells: stably transformed Arabidopsis thaliana (Col-0) plants, line oe3HA-PYL8: seedlings or imbibed seeds; seed lines in pyl8-1 background, some crossed with oeDDA1-GFP
T1 sequence (Q9FGM1 1-188): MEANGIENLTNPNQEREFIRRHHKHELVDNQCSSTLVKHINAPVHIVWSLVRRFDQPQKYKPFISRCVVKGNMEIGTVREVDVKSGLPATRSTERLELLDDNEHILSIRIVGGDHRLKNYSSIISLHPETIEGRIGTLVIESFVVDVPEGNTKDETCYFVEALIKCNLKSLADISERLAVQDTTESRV
Description: as §1, with “kit. For in vivo co-immunoprecipitation assays, normalized seedling protein extracts were incubated with 5 μl anti-GFP antibody (Living colors Full length A.V. Polyclonal Antibody, Clontech) for 1 h at 4° C. with rotation. 10 μl of protein A-coupled beads (prewashed twice with 0.1 M Glycine pH 2.7) were added to the samples and incubated for an additional hour at 4° C. with rotation.” for “kit.”

[3] = biological target: T1, 3HA-PYL8; test: Immunoblot of 3HA-PYL8 levels in imbibed seeds; type: in vivo; details: 24 h in MS media with 3 μM ABA
Description: (G) Immunoblot analysis of 3HA-PYL8 levels in seeds corresponding to oe3HA-PYL8/oeDDA1-GFP and control (oe3HA-PYL8) plants. Both lines were in the pyl8-1 background. Prior to protein extraction, imbibed seeds were maintained for 24 h in MS media with or without 3 μM ABA. Anti-HA and anti-RPT5 antibodies were used to detect 3HA-PYL8 and for loading control purposes, respectively.
as §1

[4] = system: HA-PYL8 transcript; test: HA-PYL8 transcript levels in ABA-treated seeds (semiquantitative RT-PCR); type: in vivo, Arabidopsis; details: oeHA-PYL8 seeds, ABA treatment for 24 h
Description: Semiquantitative PCR experiments from seedlings were performed using RNA prepared as afore-mentioned. RNA extraction from seeds was carried out as previously described (Onate-Sanchez and Vicente-Carbajosa, 2008). cDNA from all tissues was synthetized as described above. […] of one-fifth diluted cDNA was used to amplify DDA1-GFP, 3HA-PYL8 and the housekeeping gene ACTIN8 using the following primer:
The PCR conditions were as follows: 1 min at 94° C., 35 cycles of 15 s at 94° C., 1 min at 58-62° C., and 1 min 30 s at 72° C., and finally, 5 min at 72° C. 25

[5] = biological target: T2, PP2C-ABA-PYL8 ternary complexes (Arabidopsis thaliana, UniProt Q9FGM1); details: ternary complex of PYL8 with ABA and clade A PP2C; cited from earlier work
T2 sequence (Q9FGM1 1-188): T1 sequence (Q9FGM1 1-188)

[6] = system: PYL8 gene expression; details: after 3 h of ABA treatment; cited from earlier work

Structure (SMILES) | 3HA-PYL8 protein accumulation [1] | 3HA-PYL8 destabilization/accumulation ([2]; 50 μM MG132, oe3HA-PYL8 and oe3HA-PYL8/oeDDA1-GFP) | 3HA-PYL8 degradation ([2]; 50 μM ABA) | 3HA-PYL8 accumulation in seeds [3] | HA-PYL8 transcript levels [4] | Kd [5] [nM] | PYL8 gene expression [6]
CC(C)C[C@@H](C=O)NC(=O)[C@H](CC(C)C)NC(=O)[C@H](CC(C)C)NC(=O)OCc1ccccc1 [MG132] (Cbz-Leu-Leu-Leu-aldehyde) | increased 3HA-PYL8 protein accumulation; also recorded: stabilizes 3HA-PYL8 | attenuated 3HA-PYL8 destabilization; also recorded: increased accumulation of 3HA-PYL8 |  |  |  |  | 
CC1=CC(=O)CC(C)(C)[C@@]1(O)/C=C/C(C)=C\C(=O)O [ABA, abscisic acid] |  |  | blocked 3HA-PYL8 degradation | increased accumulation of 3HA-PYL8 | reduced HA-PYL8 transcript levels | 20 to 40 | reduces PYL8 gene expression
